Results: the supplement of paper PMC4858399

Tests used:
Conditions in all cases: exposure time 48 h
[1] = system: Caenorhabditis elegans N2; test: AC50 for larval growth inhibition (Hill fit); higher = less potent
In short: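 Synchronised C. elegans N2 L1 larvae, 50 per well in 96-well plates, were grown at 20°C for 48 h in K-medium with killed OP50, 1% DMSO and 0.5–200 µM chemical. Worm size was read on a COPAS Biosort as extinction, log-transformed and averaged per well, and only wells holding at least 10 worms were kept. AC50 was obtained by a constrained Hill fit using weighted genetic-algorithm regression, with out-of-range values censored.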

[2] = system: Caenorhabditis elegans N2; test: lowest effective concentration for larval growth inhibition (size below effect threshold); higher = less potent
In short: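 Worm size was taken as per-worm extinction on the Biosort, log-transformed and turned into well means. The larvae (C. elegans N2, L1 stage, 50 per 96-well) had spent 48 h at 20°C in K-medium with killed bacteria, 1% DMSO and 0.5, 1, 5, 10, 50, 100 or 200 µM chemical. The lowest effective concentration marks the first dose where the plate-adjusted mean size drops under a cutoff and remains under it at every higher dose; the cutoff is 5.665.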

[3] = system: Caenorhabditis elegans N2; test: mean nematode size ln(EXT) after 48 h, plate-adjusted (DMSO control set to 6) (ln(EXT), control-adjusted); higher = larger nematodes / less growth inhibition
In short: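 A growth model removed debris from Biosort extinction readings taken on each worm. These worms were synchronised C. elegans N2 L1 larvae, 50 per well in 4–6 wells per treatment, grown for 48 h at 20°C in K-medium with killed OP50, 1% DMSO and 0.5–200 µM chemical. Readings were natural-logged and averaged by well to give mean size. On each plate, the vehicle control mean was subtracted and 6 was added.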

Compound: CCOC(=O)CC(SP(=S)(OC)OC)C(=O)OCC (centres undefined) [Malathion]
- AC50 for larval growth inhibition [1]: > 200 µM
- lowest effective concentration [2]: 100 µM
- mean nematode size ln(EXT) (ln) ([3]; 0.5 µM): 5.93
- mean nematode size ln(EXT) (ln) ([3]; 1 µM): 6.01
- mean nematode size ln(EXT) (ln) ([3]; 5 µM): 5.79
- mean nematode size ln(EXT) (ln) ([3]; 10 µM): 5.98
- mean nematode size ln(EXT) (ln) ([3]; 50 µM): 5.8
- mean nematode size ln(EXT) (ln) ([3]; 100 µM): 5.59
- mean nematode size ln(EXT) (ln) ([3]; 200 µM): 5.28

Compound: CCCCNC(=O)OCC#CI [3-Iodo-2-propynylbutylcarbamate]
- AC50 for larval growth inhibition [1]: 101 µM
- lowest effective concentration [2]: 100 µM
- mean nematode size ln(EXT) (ln) ([3]; 0.5 µM): 6.05
- mean nematode size ln(EXT) (ln) ([3]; 1 µM): 5.98
- mean nematode size ln(EXT) (ln) ([3]; 5 µM): 6.06
- mean nematode size ln(EXT) (ln) ([3]; 10 µM): 6.03
- mean nematode size ln(EXT) (ln) ([3]; 50 µM): 5.84
- mean nematode size ln(EXT) (ln) ([3]; 100 µM): 4.8
- mean nematode size ln(EXT) (ln) ([3]; 200 µM): 3.17

Compound: COc1ccc(S(=O)(=O)N2C(=O)[C@@](c3ccccc3OC)(N3C[C@H](O)C[C@H]3C(=O)N(C)C)c3cc(Cl)ccc32)c(OC)c1 [Nelivaptan]
- AC50 for larval growth inhibition [1]: > 200 µM
- lowest effective concentration [2]: 100 µM
- mean nematode size ln(EXT) (ln) ([3]; 0.5 µM): 5.95
- mean nematode size ln(EXT) (ln) ([3]; 1 µM): 5.76
- mean nematode size ln(EXT) (ln) ([3]; 5 µM): 5.72
- mean nematode size ln(EXT) (ln) ([3]; 10 µM): 5.83
- mean nematode size ln(EXT) (ln) ([3]; 50 µM): 5.7
- mean nematode size ln(EXT) (ln) ([3]; 100 µM): 5.48
- mean nematode size ln(EXT) (ln) ([3]; 200 µM): 5.44

Compound: NC(=Nc1ccccc1)Nc1ccccc1 [1,3-Diphenylguanidine]
- AC50 for larval growth inhibition [1]: 16.6 µM
- lowest effective concentration [2]: 5 µM
- mean nematode size ln(EXT) (ln) ([3]; 0.5 µM): 5.67
- mean nematode size ln(EXT) (ln) ([3]; 1 µM): 5.74
- mean nematode size ln(EXT) (ln) ([3]; 5 µM): 5.62
- mean nematode size ln(EXT) (ln) ([3]; 10 µM): 5.6
- mean nematode size ln(EXT) (ln) ([3]; 50 µM): 5.63
- mean nematode size ln(EXT) (ln) ([3]; 100 µM): 5.64
- mean nematode size ln(EXT) (ln) ([3]; 200 µM): 5.55

Compound: C=CC(=O)OCCCCCC(C)C [Isooctyl acrylate]
- AC50 for larval growth inhibition [1]: > 200 µM
- lowest effective concentration [2]: 200 µM
- mean nematode size ln(EXT) (ln) ([3]; 0.5 µM): 5.42
- mean nematode size ln(EXT) (ln) ([3]; 1 µM): 5.47
- mean nematode size ln(EXT) (ln) ([3]; 5 µM): 5.59
- mean nematode size ln(EXT) (ln) ([3]; 10 µM): 5.64
- mean nematode size ln(EXT) (ln) ([3]; 50 µM): 5.7
- mean nematode size ln(EXT) (ln) ([3]; 100 µM): 5.68
- mean nematode size ln(EXT) (ln) ([3]; 200 µM): 5.52

Compound: N#Cc1c(Cl)cccc1Cl [Dichlobenil]
- AC50 for larval growth inhibition [1]: > 200 µM
- lowest effective concentration [2]: 200 µM
- mean nematode size ln(EXT) (ln) ([3]; 0.5 µM): 5.93
- mean nematode size ln(EXT) (ln) ([3]; 1 µM): 5.79
- mean nematode size ln(EXT) (ln) ([3]; 5 µM): 6.11
- mean nematode size ln(EXT) (ln) ([3]; 10 µM): 5.95
- mean nematode size ln(EXT) (ln) ([3]; 50 µM): 5.9
- mean nematode size ln(EXT) (ln) ([3]; 100 µM): 6.01
- mean nematode size ln(EXT) (ln) ([3]; 200 µM): 5.54

Compound: CC(C)(c1ccccc1)c1ccc(O)c(C(C)(C)c2ccccc2)c1 [2,4-Bis(alpha,alpha-dimethylbenzyl)phenol]
- AC50 for larval growth inhibition [1]: 58.7 µM
- lowest effective concentration [2]: 10 µM
- mean nematode size ln(EXT) (ln) ([3]; 0.5 µM): 6
- mean nematode size ln(EXT) (ln) ([3]; 1 µM): 5.67
- mean nematode size ln(EXT) (ln) ([3]; 5 µM): 5.74
- mean nematode size ln(EXT) (ln) ([3]; 10 µM): 5.45
- mean nematode size ln(EXT) (ln) ([3]; 50 µM): 4.67
- mean nematode size ln(EXT) (ln) ([3]; 100 µM): 4.3
- mean nematode size ln(EXT) (ln) ([3]; 200 µM): 3.8

Compound: CCOP(=O)(NC(C)C)Oc1ccc(SC)c(C)c1 (centres undefined) [Fenamiphos]
- AC50 for larval growth inhibition [1]: 90.9 µM
- lowest effective concentration [2]: ≤ 0.5 µM
- mean nematode size ln(EXT) (ln) ([3]; 0.5 µM): 5.54
- mean nematode size ln(EXT) (ln) ([3]; 1 µM): 5.56
- mean nematode size ln(EXT) (ln) ([3]; 5 µM): 5.32
- mean nematode size ln(EXT) (ln) ([3]; 10 µM): 5.31
- mean nematode size ln(EXT) (ln) ([3]; 50 µM): 4.93
- mean nematode size ln(EXT) (ln) ([3]; 100 µM): 4.49
- mean nematode size ln(EXT) (ln) ([3]; 200 µM): 4.15

Compound: Cc1oc(-c2ccccc2)nc1CCOc1cccc2c1ccn2CCC(=O)O
- AC50 for larval growth inhibition [1]: > 200 µM
- lowest effective concentration [2]: 200 µM
- mean nematode size ln(EXT) (ln) ([3]; 0.5 µM): 5.73
- mean nematode size ln(EXT) (ln) ([3]; 1 µM): 5.92
- mean nematode size ln(EXT) (ln) ([3]; 5 µM): 5.85
- mean nematode size ln(EXT) (ln) ([3]; 10 µM): 5.73
- mean nematode size ln(EXT) (ln) ([3]; 50 µM): 5.67
- mean nematode size ln(EXT) (ln) ([3]; 100 µM): 5.81
- mean nematode size ln(EXT) (ln) ([3]; 200 µM): 5.52

Compound: c1ccc2[nH]c(-c3cscn3)nc2c1 [Thiabendazole]
- AC50 for larval growth inhibition [1]: > 200 µM
- lowest effective concentration [2]: 200 µM
- mean nematode size ln(EXT) (ln) ([3]; 0.5 µM): 6.04
- mean nematode size ln(EXT) (ln) ([3]; 1 µM): 6.23
- mean nematode size ln(EXT) (ln) ([3]; 5 µM): 6.02
- mean nematode size ln(EXT) (ln) ([3]; 10 µM): 5.98
- mean nematode size ln(EXT) (ln) ([3]; 50 µM): 5.78
- mean nematode size ln(EXT) (ln) ([3]; 100 µM): 5.93
- mean nematode size ln(EXT) (ln) ([3]; 200 µM): 4.91

Compound: O=[N+]([O-])c1ccc(Cl)c(Cl)c1 [1,2-Dichloro-4-nitrobenzene]
- AC50 for larval growth inhibition [1]: 111 µM
- lowest effective concentration [2]: 100 µM
- mean nematode size ln(EXT) (ln) ([3]; 0.5 µM): 5.95
- mean nematode size ln(EXT) (ln) ([3]; 1 µM): 5.94
- mean nematode size ln(EXT) (ln) ([3]; 5 µM): 5.93
- mean nematode size ln(EXT) (ln) ([3]; 10 µM): 5.99
- mean nematode size ln(EXT) (ln) ([3]; 50 µM): 5.79
- mean nematode size ln(EXT) (ln) ([3]; 100 µM): 5.66
- mean nematode size ln(EXT) (ln) ([3]; 200 µM): 5.54
